pIC50: −log10 of the molar value. Residues, ends and D or L forms follow the SMILES beside them.

In one experiment the test system is LTP maintenance. The experiment is described as follows: Reversal of LTP maintenance. The settings on record: 1 μM. Format: cell-based.
The next experiment deals with PKC gamma (Homo sapiens, UniProt P05129). The experiment in a line: Inhibition of PKC gamma (IC50). Format: biochemical.
The target of experiment [1] is T1, PKMζ (Homo sapiens, UniProt Q05513).
T1 construct: made in house; host or cells: Spodoptera frugiperda Sf9 cells, baculovirus
T1 sequence (Q05513 1-409 isoform Q05513-2): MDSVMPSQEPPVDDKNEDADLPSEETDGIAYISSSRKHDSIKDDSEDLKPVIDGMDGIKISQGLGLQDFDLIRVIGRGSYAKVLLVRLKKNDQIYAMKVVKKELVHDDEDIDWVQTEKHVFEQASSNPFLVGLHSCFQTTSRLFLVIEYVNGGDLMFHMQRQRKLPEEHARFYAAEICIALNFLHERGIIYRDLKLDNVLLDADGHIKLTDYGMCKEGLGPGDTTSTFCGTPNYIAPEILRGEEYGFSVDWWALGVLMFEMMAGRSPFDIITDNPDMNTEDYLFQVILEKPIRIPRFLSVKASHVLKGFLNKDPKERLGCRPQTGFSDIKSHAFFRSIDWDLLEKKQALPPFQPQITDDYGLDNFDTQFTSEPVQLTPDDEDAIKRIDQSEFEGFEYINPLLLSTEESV
The experiment in a line: Inhibition of PKMζ (IC50). The format is biochemical.

Experiment [2] relates to AMPA/kainate EPSCs in CA1 pyramidal cells. The experiment in a line: Intracellular perfusion of PKMζ into CA1 pyramidal cells, whole-cell recording of evoked EPSCs. Format: cell-based, Sprague-Dawley rats. As to the method: PKMζ, purified from a baculovirus/Sf9 expression system to near homogeneity, was perfused into a CA1 pyramidal cell through a whole cell recording pipette (FIGS. 1A-1B). […] In order to isolate AMPA/kainate responses, the cell, recorded at the soma, was voltage-clamped at the IPSC reversal potential (˜−70) and Cs-gluconate-based electrode solution was used (to block GABAB effects). […] Over 5-10 min, there was ˜60% increase in AMPA/kainate EPSCs, which then stabilized. In contrast, inactivated PKMζ had no effect.
Hippocampal slices were prepared from Sprague-Dawley rats as described in Example 2. Patch electrodes were pulled (two-stage) from […] O.D. borosilicate glass (World Precision Instruments, Sarasota, Fla.) on a Narishige PP-83 vertical puller. Recording pipettes had tip resistances of 2-5 MΩ and contain (in mM): Cs-gluconate or K-gluconate 130-; MgCl2, 2; CaCl2, 2; EGTA, 10; HEPES, 10; Na-ATP, 2; pH adjusted to 7.25 with either CsOH or KOH. […] Cesium was used to block potassium currents, including slow GABAB IPSCs. Electrode solutions included QX-314 (10 mM) to block […] currents to prevent cell spike discharges at depolarized holding potentials. Whole-cell recordings were obtained from CA1 pyramidal cells using blind patch techniques. The recording pipette was slowly advanced through the tissue, with brief voltage steps (−10 mV, 10 ms) applied to monitor electrode resistance. Once a deflection in the electrode's current response was detected signifying contact with the membrane of the target cell soma, slight negative pressure was applied to form a cell-electrode seal of >1 GΩ.
Membrane breakthrough was accomplished with either additional suction or current pulses. […] Signals were recorded under voltage-clamp with an Axoclamp 2A amplifier (Axon Instruments, Foster City, Calif.). Resting input resistance was measured from the current response to a −10 mV voltage step from holding potential. […]
The effects of PKMζ cell injection on excitatory synaptic currents were assessed by including the kinase in the whole-cell pipette and measuring EPSC amplitude over time. […]

Experiment [3] concerns the target T1, PKMζ. The experiment is described as follows: Inhibition of phosphorylation of exogenous substrates by various protein kinases (specificity of chelerythrine). The format is biochemical. As to conditions: versus PKC alpha, PKC epsilon (MBP substrate), CaM-kinase II (Syntide). From the text: PKCA is PKC alpha phosphorylation of myelin basic protein (MBP). PKCE is PKC epsilon phosphorylation of MBP. PKM is PKMζ phosphorylation of MBP. CKII is Ca^2+-calmodulin-dependent protein kinase II phosphorylation of Syntide® (Calbiochem, San Diego, Calif.) peptide substrate.

By pIC50 is commonly meant the IC50 on a negative log10 scale, so that one unit is a factor of ten. A lower pIC50 goes with a high IC50. Take `CCCCCCCCCCCCCC(=O)N[C@@H](CO)C(=O)N[C@H](C(=O)N[C@@H](Cc1ccc(O)cc1)C(=O)N[C@@H](CCCNC(=N)N)C(=O)N[C@@H](CCCNC(=N)N)C(=O)NCC(=O)N[C@@H](C)C(=O)N[C@@H](CCCNC(=N)N)C(=O)N[C@@H](CCCNC(=N)N)C(=O)N[C@@H](Cc1c[nH]c2ccccc12)C(=O)N[C@@H](CCCNC(=N)N)C(=O)N[C@@H](CCCCN)C(=O)N[C@@H](CC(C)C)C(=O)O)[C@@H](C)CC` [MZIP, myr-Ser-Ile-Tyr-Arg-Arg-Gly-Ala-Arg-Arg-Trp-Arg-Lys-Leu-OH] (HELM PEPTIDE1{[CCCCCCCCCCCCCC(=O)[*:2]].S.I.Y.R.R.G.A.R.R.W.R.K.L}$$$$V2.0): the “effect on LTP maintenance” value in the experiment on LTP maintenance is given as “reverses LTP maintenance”. Further, the figures for the pIC50 against PKC gamma and against PKMζ [1] were 5.00 and 7.00 to 8.00, respectively.
In the case of “PKMζ: independent catalytic domain of the PKCζ isoform, purified from a baculovirus/Sf9 expression system”, in experiment [2] (about 0.8 nM PKMζ in whole cell pipette, over 5-10 min, then stabilized, voltage-clamped ~-70), the “increase in AMPA/kainate EPSCs” value is on record as roughly 60%. Moreover, in experiment [2] (compared with reported concentration of autoactive thiophosphorylated CaM-kinase II), the “potency in potentiation of AMPA/kainate currents relative to CaM-kinase II” value is given as 200- to 1000 fold.
Take `COc1ccc2c(c[n+](C)c3c4cc5c(cc4ccc23)OCO5)c1OC` [chelerythrine]: the “selectivity as an inhibitor of PKM activity relative to other protein kinases” value on PKMζ [3] was “greater than 10 fold”. Besides, the “reversal of PKMζ-induced increases in synaptically evoked AMPA/kainate responses” value in experiment [2] (3 nM PKM in pipette, chelerythrine 1 uM in bath) is reported as “reversible”.
